Assay results: patent US7585867B2, “Substituted thiazolo[4,5-d]pyrimidin-2(3H)-one” (AstraZeneca AB, priority 2002, dated 2009)

How the values were obtained:
[1] = target: T1, hrCXCR2 (Homo sapiens, UniProt P25025); assay: Ligand binding assay ([125I]IL-8, HEK 293 membranes); settings: displacement of ~50 pM [125I]IL-8 from membranes of HEK 293 cells expressing hrCXCR2, 1.5 hours at room temperature
T1 construct: expressed in transfected cells; host or cells: HEK 293 cells (ECACC No. 85120602), membrane preparation
T1 sequence (P25025 1-360): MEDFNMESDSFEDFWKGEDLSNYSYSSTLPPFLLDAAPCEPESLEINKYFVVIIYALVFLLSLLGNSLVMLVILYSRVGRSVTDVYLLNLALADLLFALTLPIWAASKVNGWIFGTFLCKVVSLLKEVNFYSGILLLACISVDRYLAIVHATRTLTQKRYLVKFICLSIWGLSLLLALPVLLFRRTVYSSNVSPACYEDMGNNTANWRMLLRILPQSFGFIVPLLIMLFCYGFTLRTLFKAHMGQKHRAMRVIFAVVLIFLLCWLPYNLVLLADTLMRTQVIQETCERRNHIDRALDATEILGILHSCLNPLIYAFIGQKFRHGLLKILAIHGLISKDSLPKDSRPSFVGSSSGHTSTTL
From the text: [^125I]IL-8 (human, recombinant) was purchased from Amersham, U.K. with a specific activity of 2,000 Ci/mmol. All other chemicals were of analytical grade. High levels of hrCXCR2 were expressed in HEK 293 cells (human embryo kidney 293 cells ECACC No. 85120602) (Lee et al. (1992) J. Biol. Chem. 267 pp 16283-16291). hrCXC2 cDNA was amplified and cloned from human neutrophil mRNA. The DNA was cloned into PCRScript (Stratagene) and clones were identified using DNA. The coding sequence was sub-cloned into the eukaryotic expression vector RcCMV (Invitrogen). Plasmid DNA was prepared using Quiagen Megaprep 2500 and transfected into HEK 293 cells using Lipofectamine reagent (Gibco BRL). Cells of the highest expressing clone were harvested in phosphate-buffered saline containing 0.2%(w/v) ethylenediaminetetraacetic acid (EDTA) and centrifuged (200 g, 5 min.). The cell pellet was resuspended in ice cold homogenisation buffer [10 mM HEPES (pH 7.4), 1 mM dithiothreitol, 1 mM EDTA and a panel of protease inhibitors (1 mM phenyl methyl sulphonyl fluoride, 2 μg/ml soybean trypsin inhibitor, 3 mM benzamidine, 0.5 μg/ml leupeptin and 100 μg/ml bacitracin)] and the cells left to swell for 10 minutes. […] The backing plate was removed from the MultiScreen plate assembly, the filters dried at room temperature, punched out and then counted on a Cobra γ-counter.

[2] = target: T2, CXCR2 receptor in human neutrophils (Homo sapiens, UniProt P25025); assay: Intracellular calcium mobilisation assay (GROα, fluo-3, FLIPR); type: cell-based; settings: A50 concentration of GROα, fluo-3 fluorescence
T2 construct: Human nutrophils were prepared from EDTA-treated peripheral blood; endogenous in cells; host or cells: human neutrophils from peripheral blood
T2 sequence (P25025 1-360): T1 sequence (P25025 1-360)
Method: Intracellular Calcium Mobilisation Assay
Human nutrophils were prepared from EDTA-treated peripheral blood, as previously described (Baly et al. (1997) Methods in Enzymology 287 pp 70-72), in storage buffer [Tyrode's salt solution (137 mM NaCl, 2.7 mM KCl, 0.4 mM NaH2PO4) supplemented with 5.7 mM glucose and 10 mM HEPES (pH 7.4)].
The chemokine GROα (human, recombinant) was purchased from R&D Systems (Abingdon, U.K.). All other chemicals were of analytical grade. Changes in intracellular free calcium were measured fluorometrically by loading neutrophils with the calcium sensitive fluorescent dye, fluo-3, as described previously (Merritt et al. (1990) Biochem. J. 269, pp513-519). Cells were loaded for 1 hour at 37° C. in loading buffer (storage buffer with 0.1% (w/v) gelatin) containing 5 μM fluo-3 AM ester, washed with loading buffer and then resuspended in Tyrode's salt solution supplemented with 5.7 mM glucose, 0.1% (w/v) bovine serum albumin (BSA), 1.8 mM CaCl2 and 1 mM MgCl2. […]
A compound of formula (I) according to the Examples was pre-dissolved in DMSO and added to a final concentration of 0.1% (v/v) DMSO. Assays were initiated by the addition of an A50 concentration of GROα and the transient increase in fluo-3 fluorescence (λEx=490 nm and λEm=520 nm) monitored using a FLIPR (Fluorometric Imaging Plate Reader, Molecular Devices, Sunnyvale, U.S.A.). […]

Row | Structure (SMILES) | melting point | IC50 [1] [µM] | antagonism of GROα-induced intracellular calcium increase [2]
1 | CC(CO)(CO)Nc1nc(SCc2cccc(F)c2F)nc2[nH]c(=O)sc12.[Na] | 238 °C (dec.) |  | 
2 | CC(CO)(CO)Nc1nc(SCc2cccc(F)c2F)nc2[nH]c(=O)sc12 [compound of formula (I), 5-[[(2,3-Difluorophenyl)methyl]thio]-7-[[2-hydroxy-1-(hydroxymethyl) 1 methylethyl]amino]-thiazolo[4,5-d]pyrimidin-2(3H)-one] | 230 to 233 °C | < 10 | antagonist
